US5525627A, “Esters of acyl carnitines with long-chain aliphatic alcohols and pharmaceutical compositions containing same having antimycotic activity” (Sigma-Tau Industrie Farmaceutiche Riunite S.p.A., priority 1992, dated 1996)

Legend:
filamentous fungi = assay: MIC / MFC for filamentous fungi, all strains; type: cell-based, Aspergillus, Fusarium, Mucor, Penicillium; settings: versus susceptible strains; read-out: Mean MIC values
Excerpt: (§1) The following strains were used (the number of strains is in brackets): Aspergillus (5); Fusarium (1); Mucor (1); Penicillium (1).
(§2) The tested substances were: ST 712, ST 722, ST 982, ST 983, ST 1000, ST 1001, ST 1032, ST 1033, ST 1034, ST 1036, ST 1037, ST 1038, ST 1050, ST 1051, ST 1052, ST 1053. The assay medium was the same as the one used in the previous study. The conidia from 72-hour cultures in Sabouraud agar, collected by washing with Sabouraud medium and Tween 80 (one drop of Tween per 10 ml of medium), were utilized as inoculum (5.0×10^4 CFU/ml).
(§3) The assay was performed using the same procedure as described for yeast-like fungi.
(§4) Also the evaluation of MIC and MFC was as reported previously.

[1] = system: Torulopsis candida (D.S.); assay: MIC for yeast and yeast-like strains; type: cell-based; settings: Suzukiozyma candida; 48 hours, 35° C.; read-out: Minimal Inhibitory Concentration (MIC)
Protocol: (§5) The following strains were used (the number of strains is in brackets): Candida (13); Criptococcus (2); Saccharormyces (1); Torulopsis (1).
(§6) Yeast Nitrogen Base supplemented with 0.15% asparagine and 1.0% glucose (as carbon source) was the medium utilized in the assays.
(§7) This medium was buffered with 0.165 M 2-(N-morpholino) propane sulfonic acid (MOPS), a non-chelating buffer. […]
(§8) The inoculum was prepared from an overnight broth culture (a 48-hour culture only for Cryptococcus) in Sabouraud broth and appropriately diluted to yield a final suspension containing approximately 5.0×10^6 Colony Forming Units per ml (CFU/ml), when compared to the Mc Farland's standard control (BRAY W. E., Clinical Laboratory Methods, 5th Ed. C. V. MOSBY, St. Louis, Mo, 1957).
(§9) After further diluting (1:50), a […] volume of such fungal suspensions and an equal volume of the substance solutions were distributed into each well of a microtiter plate (96 wells, round bottom). Such a procedure eventually allowed for an "in vitro" antimycotic activity assay utilizing final fungal inocula of approximately 5.0×10^4 CFU/ml.

[2] = system: Saccharomyces cerevisiae (ATCC 7752); assay: MIC for yeast and yeast-like strains; type: cell-based; settings: ATCC7752, 48 hours, 35° C., read-out: Minimal Inhibitory Concentration (MIC)
Protocol: as §5, §6, §7, §8, §9

[3] = system: Cryptococcus neoformans (4711); assay: MIC for yeast and yeast-like strains; type: cell-based; settings: 48 hours, 35° C., read-out: Minimal Inhibitory Concentration (MIC)
Protocol: as §5, §6, §7, §8, §9

[4] = system: Candida tropicalis (5705); assay: MIC for yeast and yeast-like strains; type: cell-based; settings: 48 hours, 35° C., read-out: Minimal Inhibitory Concentration (MIC)
Protocol: as §5, §6, §7, §8, §9

Candida krusei (ISS 1) = assay: MIC for yeast and yeast-like strains; type: cell-based; settings: Pichia kudriavzevii; 48 hours, 35° C.; read-out: Minimal Inhibitory Concentration (MIC)
Protocol: as §5, §6, §7, §8, §9

Candida albicans (Ca 2) = assay: MIC for yeast and yeast-like strains; type: cell-based; settings: 48 hours, 35° C., read-out: Minimal Inhibitory Concentration (MIC)
Protocol: as §5, §6, §7, §8, §9

Candida albicans (A 54) = assay: MIC for yeast and yeast-like strains; type: cell-based; settings: 48 hours, 35° C., read-out: Minimal Inhibitory Concentration (MIC)
Protocol: as §5, §6, §7, §8, §9

Candida albicans (562) = assay: MIC for yeast and yeast-like strains; type: cell-based; settings: 48 hours, 35° C., read-out: Minimal Inhibitory Concentration (MIC)
Protocol: as §5, §6, §7, §8, §9

yeast-like fungi = assay: MIC / MFC for yeast-like fungi, all strains; type: cell-based, Candida, Cryptococcus, Saccharomyces, Torulopsis; settings: versus susceptible strains; read-out: Mean MIC values
Protocol: as §5, §6, §7, §8, §9
(§10) The minimal fungicidal concentration was evaluated by spot-transferring onto Petri dishes, containing Sabouraud agar, 0.01-ml volumes of all the samples showing no visible fungal growth.

[5] = system: Candida albicans (ATCC 2091); assay: MIC for yeast and yeast-like strains; type: cell-based; settings: ATCC2091, 48 hours, 35° C., read-out: Minimal Inhibitory Concentration (MIC)
Protocol: as §5, §6
(§11) This medium was buffered with 0.165 M 2-(N-morpholino) propane sulfonic acid (MOPS), a non-chelating buffer.
(§12) Antimicrob. Agents Cheroother. Aug. 34.8:1542-1545).
as §8, §9

Candida albicans (ISS 1) = assay: MIC for yeast and yeast-like strains; type: cell-based; settings: 48 hours, 35° C., read-out: Minimal Inhibitory Concentration (MIC)
Protocol: as §5, §6, §11, §12, §8, §9

[6] = system: Candida guilliermondii (ISS 1); assay: MIC for yeast and yeast-like strains; type: cell-based; settings: Meyerozyma guilliermondii; 48 hours, 35° C.; read-out: Minimal Inhibitory Concentration (MIC)
Protocol: as §5, §6, §11, §12, §8, §9

[7] = system: Cryptococcus neoformans (ISS 1); assay: MIC for yeast and yeast-like strains; type: cell-based; settings: 48 hours, 35° C., read-out: Minimal Inhibitory Concentration (MIC)
Protocol: as §5, §6, §11, §12, §8, §9

Candida glabrata (ISS 1) = assay: MIC for yeast and yeast-like strains; type: cell-based; settings: Nakaseomyces glabratus; 48 hours, 35° C.; read-out: Minimal Inhibitory Concentration (MIC)
Protocol: as §5, §6, §11, §12, §8, §9

[8] = system: Candida pseudotropicalis (EC 1); assay: MIC for yeast and yeast-like strains; type: cell-based; settings: Kluyveromyces marxianus; 48 hours, 35° C.; read-out: Minimal Inhibitory Concentration (MIC)
Protocol: as §5, §6, §11, §12, §8, §9

[9] = system: Candida tropicalis (ISS 1); assay: MIC for yeast and yeast-like strains; type: cell-based; settings: 48 hours, 35° C., read-out: Minimal Inhibitory Concentration (MIC)
Protocol: as §5, §6, §11, §12, §8, §9

[10] = system: Candida parapsilosis (ISS 1); assay: MIC for yeast and yeast-like strains; type: cell-based; settings: Lodderomyces parapsilosis; 48 hours, 35° C.; read-out: Minimal Inhibitory Concentration (MIC)
Protocol: as §5, §6, §11, §12, §8, §9

Fusarium sp. (ISS 1) = assay: MIC for filamentous fungi; type: cell-based; settings: read-out: Minimal Inhibitory Concentration (MIC)
Excerpt: as §1, §2, §3, §4

[11] = system: Aspergillus fumigatus (1/A); assay: MIC for filamentous fungi; type: cell-based; settings: read-out: Minimal Inhibitory Concentration (MIC)
Excerpt: as §1, §2, §3, §4

[12] = system: Aspergillus fumigatus (ATCC 28212); assay: MIC for filamentous fungi; type: cell-based; settings: ATCC28212, read-out: Minimal Inhibitory Concentration (MIC)
Excerpt: as §1, §2, §3, §4

Penicillium sp. (1302) = assay: MIC for filamentous fungi; type: cell-based; settings: read-out: Minimal Inhibitory Concentration (MIC)
Excerpt: as §1, §2, §3, §4

Mucor mucedo (ATCC 7941) = assay: MIC for filamentous fungi; type: cell-based; settings: ATCC7941, read-out: Minimal Inhibitory Concentration (MIC)
Excerpt: as §1, §2, §3, §4

[13] = system: Aspergillus niger (ATCC 16404); assay: MIC for filamentous fungi; type: cell-based; settings: ATCC16404, read-out: Minimal Inhibitory Concentration (MIC)
Excerpt: as §1, §2, §3, §4

[14] = system: Aspergillus fumigatus (2/A); assay: MIC for filamentous fungi; type: cell-based; settings: read-out: Minimal Inhibitory Concentration (MIC)
Excerpt: as §1, §2, §3, §4

[15] = system: Aspergillus fumigatus (C/1); assay: MIC for filamentous fungi; type: cell-based; settings: read-out: Minimal Inhibitory Concentration (MIC)
Excerpt: as §1, §2, §3, §4

Candida albicans (PG) = assay: MIC and MFC for yeast and yeast-like strains; type: cell-based; settings: 48 hours, 35° C., read-out: Minimal Inhibitory Concentration (MIC)
Protocol: as §5, §6, §11, §12, §8, §9, §10

SMILES | MIC (filamentous fungi) [µg/mL] | MIC [1] [µg/mL] | MIC [2] [µg/mL] | MIC [3] [µg/mL] | MIC [4] [µg/mL] | MIC (Candida krusei (ISS 1)) [µg/mL] | MIC (Candida albicans (Ca 2)) [µg/mL] | MIC (Candida albicans (A 54)) [µg/mL] | MIC (Candida albicans (562)) [µg/mL] | MIC (yeast-like fungi) [µg/mL] | MIC [5] [µg/mL] | MIC (Candida albicans (ISS 1)) [µg/mL] | MIC [6] [µg/mL] | MIC [7] [µg/mL] | MIC (Candida glabrata (ISS 1)) [µg/mL] | MIC [8] [µg/mL] | MIC [9] [µg/mL] | MIC [10] [µg/mL] | MIC (Fusarium sp. (ISS 1)) [µg/mL] | MIC [11] [µg/mL] | other results
CCCCCCCCCCCCCCCCOC(=O)C[C@H](C[N+](C)(C)C)OC(=O)CC(C)C [ST 1001] | 7.03 | 6.25 | 6.25 | 1.56 | 6.25 | 6.25 | 3.12 | 3.12 | 3.12 | 6.24 | 6.25 | 12.5 | 6.25 | 3.12 | 6.25 | 12.5 | 12.5 | 6.25 | 12.5 | 6.25 | MIC [12]: 6.25 µg/mL; MIC (Penicillium sp. (1302)): 6.25 µg/mL; MIC (Mucor mucedo (ATCC 7941)): > 100 µg/mL; MIC [13]: 12.5 µg/mL; MIC [14]: 6.25 µg/mL; MIC [15]: 6.25 µg/mL; MIC (Candida albicans (PG)): 6.25 µg/mL
CCCCCCCCCCCOC(=O)C[C@H](C[N+](C)(C)C)OC(=O)CCC(C)C [ST 1034] | 5.85 | 3.12 | 3.12 | 1.56 | 3.12 | 1.56 | 1.56 | 1.56 | 1.56 | 3.03 | 1.56 | 1.56 | 6.25 | 3.12 | 3.12 | 6.25 | 3.12 | 6.25 | 3.12 | 6.25 | MIC [12]: 6.25 µg/mL; MIC (Penicillium sp. (1302)): 3.12 µg/mL; MIC (Mucor mucedo (ATCC 7941)): 12.5 µg/mL; MIC [13]: 6.25 µg/mL; MIC [14]: 3.12 µg/mL; MIC [15]: 6.25 µg/mL; MIC (Candida albicans (PG)): 3.12 µg/mL
CCCCCCCCCCCOC(=O)C[C@H](C[N+](C)(C)C)OC(=O)CCCCCC [ST 1036] | 4.29 | 3.12 | 3.12 | 1.56 | 3.12 | 1.56 | 1.56 | 1.56 | 1.56 | 2.84 | 1.56 | 1.56 | 6.25 | 3.12 | 3.12 | 6.25 | 3.12 | 6.25 | 3.12 | 6.25 | MIC [12]: 3.12 µg/mL; MIC (Penicillium sp. (1302)): 3.12 µg/mL; MIC (Mucor mucedo (ATCC 7941)): 6.25 µg/mL; MIC [13]: 3.12 µg/mL; MIC [14]: 6.25 µg/mL; MIC [15]: 3.12 µg/mL; MIC (Candida albicans (PG)): 3.12 µg/mL
CCCCCCCCCCCCOC(=O)C[C@H](C[N+](C)(C)C)OC(=O)C(C)C [ST 1038] | 12.5 | 6.25 | 6.25 | 1.56 | 3.12 | 3.12 | 1.56 | 3.12 | 3.12 | 4.4 | 3.12 | 6.25 | 6.25 | 3.12 | 6.25 | 6.25 | 3.12 | 6.25 | 6.25 | 12.5 | MIC [12]: 12.5 µg/mL; MIC (Penicillium sp. (1302)): 12.5 µg/mL; MIC (Mucor mucedo (ATCC 7941)): 25 µg/mL; MIC [13]: 12.5 µg/mL; MIC [14]: 12.5 µg/mL; MIC [15]: 6.25 µg/mL; MIC (Candida albicans (PG)): 6.25 µg/mL
